Values after ≈ are worked out from the molar mass of the structure shown. Active and inactive are the calls of the source. No cut-off for these calls is given here.

Data set [1] has as its system Candida albicans. Briefly: Antifungal activity against Candida albicans assessed as fungal growth inhibition by CLSI protocol based microbroth dilution method. Type of data set: functional. (In general: In broth dilution the organism is exposed to a series of concentrations in liquid medium.)
A further data set has as its system Candida parapsilosis. Briefly: Antifungal activity against Candida parapsilosis ATCC 22019 assessed as fungal growth inhibition by CLSI protocol based microbroth dilution method. Type of data set: functional. The following applies: Lodderomyces parapsilosis.
Data set [2] deals with Candida albicans. Briefly: Antifungal activity against Candida albicans ATCC 90023 assessed as fungal growth inhibition by CLSI protocol based microbroth dilution method. It counts as functional.
The next data set concerns Candida tropicalis. Briefly: Antifungal activity against Candida tropicalis assessed as fungal growth inhibition by CLSI protocol based microbroth dilution method. Type of data set: functional.
The nature of data set [3]: Hemolytic activity in human RBC. Type of data set: cell-based, Erythrocyte. Particulars: human red blood cells (erythrocytes).
The test system of a further data set is Aspergillus fumigatus. Briefly: Antifungal activity against Aspergillus fumigatus assessed as fungal growth inhibition by CLSI protocol based microbroth dilution method. Type of data set: functional.
For data set [4], the system named is Candida albicans. Briefly: Antifungal activity against Candida albicans measured after 8 passages. It counts as functional, organism-based.

The MIC is the lowest concentration found to suppress growth. In general, HC50 refers to the concentration giving 50% haemolysis. Read a low HC50 as more damage to red cells. As for `CCO/N=C(/Cn1cnc2c(N3CCN(CC(=O)OCC)CC3)ncnc21)c1nccs1`, the MIC stood at 64 µg/mL (≈ 140 µM) with Candida albicans [1]; 128 µg/mL (≈ 279 µM) in the data set with Candida parapsilosis; 64 µg/mL (≈ 140 µM) in the data set with Candida albicans [2]; 128 µg/mL (≈ 279 µM) in the data set on Candida tropicalis; 128 µg/mL (≈ 279 µM) in the data set on Aspergillus fumigatus. Besides, the 50% haemolytic concentration (HC50) in data set [3] is above 256 µg/mL.
As for `CC(C)(C)OC(=O)N1CCN(C(=O)CN2CCN(c3ncnc4c3ncn4CC(=O)c3nccs3)CC2)CC1`, the MIC with Candida albicans [1] is 32 µg/mL (≈ 57.6 µM); in the data set on Candida parapsilosis, 128 µg/mL (≈ 230 µM); in the data set on Candida albicans [2], 16 µg/mL (≈ 28.8 µM); in the data set with Candida tropicalis it was 64 µg/mL (≈ 115 µM); in the data set with Aspergillus fumigatus, 128 µg/mL (≈ 230 µM). For the same compound, in data set [3], the HC50 was above 256 µg/mL.
Consider `O=C(Cn1cnc2c(Cl)ncnc21)c1nccs1`, for which the minimum inhibitory concentration (MIC) worked out at 64 µg/mL (≈ 229 µM) in the data set on Candida albicans [1]; 64 µg/mL (≈ 229 µM) in the data set on Candida parapsilosis; 128 µg/mL (≈ 458 µM) in the data set on Candida albicans [2]; 32 µg/mL (≈ 114 µM) in the data set with Candida tropicalis; 128 µg/mL (≈ 458 µM) with Aspergillus fumigatus. The compound further displayed a concentration for 50% haemolysis (HC50) in data set [3] above 256 µg/mL.
Turning to `N#CCN1CCN(c2ncnc3c2ncn3CC(=O)c2nccs2)CC1`, the MIC worked out at 8 µg/mL (≈ 21.7 µM) with Candida albicans [1]; 8 µg/mL (≈ 21.7 µM) in the data set on Candida parapsilosis; 256 µg/mL (≈ 695 µM) with Candida albicans [2]; 4 µg/mL (≈ 10.9 µM) in the data set on Candida tropicalis; 16 µg/mL (≈ 43.4 µM) in the data set on Aspergillus fumigatus. Moreover, the HC50 in data set [3] was above 256 µg/mL.
Regarding `C#CCN1CCN(c2ncnc3c2ncn3CC(=O)c2nccs2)CC1`, the MIC in the data set with Candida albicans [1] stood at 256 µg/mL (≈ 697 µM); with Candida parapsilosis, 256 µg/mL (≈ 697 µM); in the data set on Candida albicans [2] it was 16 µg/mL (≈ 43.5 µM); in the data set with Candida tropicalis, 256 µg/mL (≈ 697 µM); in the data set with Aspergillus fumigatus it was 32 µg/mL (≈ 87.1 µM). For the same compound, in data set [3], the HC50 was above 256 µg/mL.
As for `O=C(Cn1cnc2c(N3CCN(Cc4ccc(F)cc4)CC3)ncnc21)c1nccs1`, the MIC with Candida albicans [1] worked out at 32 µg/mL (≈ 73.1 µM); in the data set with Candida parapsilosis, 256 µg/mL (≈ 585 µM); in the data set with Candida albicans [2], 256 µg/mL (≈ 585 µM); in the data set on Candida tropicalis it was 64 µg/mL (≈ 146 µM); in the data set with Aspergillus fumigatus, 32 µg/mL (≈ 73.1 µM). The compound further gave an HC50 in data set [3] above 256 µg/mL.
`CCOC(=O)CN1CCN(c2ncnc3c2ncn3C/C(=N/OC)c2nccs2)CC1`: the MIC with Candida albicans [1] is 8 µg/mL (≈ 18 µM); with Candida parapsilosis it was 128 µg/mL (≈ 288 µM); in the data set on Candida albicans [2], 64 µg/mL (≈ 144 µM); with Candida tropicalis, 64 µg/mL (≈ 144 µM); in the data set on Aspergillus fumigatus, 32 µg/mL (≈ 72 µM). In data set [3], this compound gave a concentration for 50% haemolysis (HC50) above 256 µg/mL.
Turning to `N#CCN(CC#N)C(=O)CN1CCN(c2ncnc3c2ncn3CC(=O)c2nccs2)CC1`, the MIC was determined as 16 µg/mL (≈ 34.4 µM) with Candida albicans [1]; 128 µg/mL (≈ 276 µM) with Candida parapsilosis; 32 µg/mL (≈ 68.9 µM) in the data set with Candida albicans [2]; 64 µg/mL (≈ 138 µM) in the data set with Candida tropicalis; 64 µg/mL (≈ 138 µM) in the data set on Aspergillus fumigatus. The compound further came in with an HC50 in data set [3] above 256 µg/mL.
For the compound `O=C(Cn1cnc2c(N3CCCC3)ncnc21)c1nccs1`, the MIC turned out to be 16 µg/mL (≈ 50.9 µM) with Candida albicans [1]; 32 µg/mL (≈ 102 µM) with Candida parapsilosis; 32 µg/mL (≈ 102 µM) in the data set with Candida albicans [2]; 64 µg/mL (≈ 204 µM) with Candida tropicalis; 32 µg/mL (≈ 102 µM) in the data set with Aspergillus fumigatus. For the same compound, the 50% haemolytic concentration (HC50) in data set [3] was above 256 µg/mL.
For the compound `O=C(Cn1cnc2c(N3CCCCC3)ncnc21)c1nccs1`, the MIC came out at 1 µg/mL (≈ 3.05 µM) with Candida albicans [1]; 64 µg/mL (≈ 195 µM) in the data set with Candida parapsilosis; 256 µg/mL (≈ 780 µM) in the data set with Candida albicans [2]; 64 µg/mL (≈ 195 µM) in the data set with Candida tropicalis; 128 µg/mL (≈ 390 µM) with Aspergillus fumigatus. In addition, the HC50 in data set [3] is above 256 µg/mL.
Consider `O=C(Cn1cnc2c(N3CCN(CC(=O)N(C4CCCCC4)C4CCCCC4)CC3)ncnc21)c1nccs1`, for which the MIC was found to be 8 µg/mL (≈ 14.5 µM) in the data set with Candida albicans [1]; 16 µg/mL (≈ 29.1 µM) with Candida parapsilosis; 256 µg/mL (≈ 465 µM) in the data set with Candida albicans [2]; 16 µg/mL (≈ 29.1 µM) in the data set on Candida tropicalis; 32 µg/mL (≈ 58.1 µM) with Aspergillus fumigatus. Besides, the HC50 in data set [3] was above 256 µg/mL.
In the case of `O=C(Cn1cnc2c(N3CCN(Cc4ccccc4Cl)CC3)ncnc21)c1nccs1`, the MIC was found to be 256 µg/mL (≈ 564 µM) with Candida albicans [1]; 256 µg/mL (≈ 564 µM) with Candida parapsilosis; 2 µg/mL (≈ 4.41 µM) with Candida albicans [2]; 256 µg/mL (≈ 564 µM) with Candida tropicalis; 64 µg/mL (≈ 141 µM) with Aspergillus fumigatus. This compound also registered an HC50 in data set [3] above 256 µg/mL.
In the case of `OC(Cn1cncn1)(Cn1cncn1)c1ccc(F)cc1F` [FLUCONAZOLE], the MIC with Candida albicans [1] is 4 µg/mL (≈ 13.1 µM); in the data set with Candida parapsilosis it was 4 µg/mL (≈ 13.1 µM); in the data set on Candida albicans [2], 2 µg/mL (≈ 6.53 µM); in the data set on Candida tropicalis, 8 µg/mL (≈ 26.1 µM); with Aspergillus fumigatus, 256 µg/mL (≈ 836 µM). This compound also came in with a concentration for 50% haemolysis (HC50) in data set [3] above 256 µg/mL. The outcome in the data set on Candida albicans [4] was Active.
As to `O=C(Cn1cnc2c(N3CCCCCC3)ncnc21)c1nccs1`, the MIC in the data set on Candida albicans [1] came to 256 µg/mL (≈ 748 µM); in the data set on Candida parapsilosis it was 256 µg/mL (≈ 748 µM); in the data set on Candida albicans [2], 8 µg/mL (≈ 23.4 µM); in the data set on Candida tropicalis, 256 µg/mL (≈ 748 µM); in the data set on Aspergillus fumigatus, 64 µg/mL (≈ 187 µM). The compound further showed an HC50 in data set [3] above 256 µg/mL.
`CCCCN1CCN(c2ncnc3c2ncn3CC(=O)c2nccs2)CC1`: the MIC was 4 µg/mL (≈ 10.4 µM) with Candida albicans [1]; 64 µg/mL (≈ 166 µM) in the data set with Candida parapsilosis; 64 µg/mL (≈ 166 µM) in the data set with Candida albicans [2]; 128 µg/mL (≈ 332 µM) in the data set with Candida tropicalis; 256 µg/mL (≈ 664 µM) with Aspergillus fumigatus. This compound also showed an HC50 in data set [3] above 256 µg/mL.
On to `CCCCCCCCCCCCCCCCCCN1CCN(c2ncnc3c2ncn3CC(=O)c2nccs2)CC1`, for which the MIC in the data set on Candida albicans [1] was determined as 2 µg/mL (≈ 3.44 µM); in the data set with Candida parapsilosis it was 128 µg/mL (≈ 220 µM); with Candida albicans [2] it was 256 µg/mL (≈ 440 µM); in the data set with Candida tropicalis, 64 µg/mL (≈ 110 µM); in the data set on Aspergillus fumigatus it was 32 µg/mL (≈ 55 µM). Also, the HC50 in data set [3] was above 256 µg/mL.

Values taken from ChEMBL document CHEMBL4825682, “Discovery of novel purinylthiazolylethanone derivatives as anti-Candida albicans agents through possible multifaceted mechanisms” (Eur J Med Chem, 2021).
